Reference: a melting point compilation (Tetko et al.; mined from patent text by program, amines drawn as free bases though some values may be those of a salt)

Row | SMILES | melting point
1 | O=C(O)C1=Nc2ccc3c(c2=C1)=CCO3 | 183 to 184 °C
2 | CCCOc1ccc(S(=O)(=O)N2CCN(Cc3ccccc3)CC2)cc1-c1nc2cc(N)c([N+](=O)[O-])cc2c(=O)[nH]1 | 198 to 200 °C
3 | O=C1COc2cc(NC(=O)C(=O)N3CCC(Cc4ccc(F)cc4)CC3)ccc2N1 | 209 to 212 °C
4 | O=C1c2cc(Cl)ccc2CN2C(=NO)CCC12 (centres undefined) | 130 to 136 °C
5 | COC(=O)C=Cc1cnc(SC)nc1NCc1ccc(OC)c(Cl)c1 | 141 to 142 °C
6 | Cc1c2n(c3ccccc13)C(=O)C(Cc1cccnc1)CC2 (centres undefined) | 158 to 160 °C
7 | Cc1cc(C(N)=O)ncc1C(c1c(F)ccc(F)c1F)S(=O)(=O)CCC(F)(F)C(F)(F)F (centres undefined) | 155 to 156 °C
8 | CC=Cn1c(C(O)(c2ccc(Cl)cc2)c2ccc(Cl)cc2)nc(C)c1C | 127 to 128 °C
9 | CCCc1[nH]c(=O)oc1-c1ccnc(-c2ccccc2)c1 | 202 to 204 °C
10 | COc1ccc(CCCON2CCC(C(=O)c3nc4ccccc4s3)CC2)cc1 | 114 to 115 °C
11 | COc1cccc(OC)c1-c1cc(C(=O)NC2(C(=O)O)C3CC4CC(C3)CC2C4)nn1-c1ccc(N)cc1C (centres undefined) | 205 °C
12 | BrC(Br)=Cc1ccc(OCc2ccccc2)cc1 | 97 to 98 °C
13 | CCOC(=O)Cn1c(CC)nc2c(OCc3ccc(OC)cc3)cccc21 | 112 °C
14 | CCC(O)(c1ccc(Cl)cc1)c1ccc(OCc2cccc(C)n2)cc1 (centres undefined) | 100 to 101 °C
15 | Cc1cn(S(C)(=O)=O)c2c1C(=O)CC(c1ccccc1)C2 (centres undefined) | 80 to 83 °C
16 | O=C1OC(=O)c2cc(N3C(=O)CCC3=O)ccc21 | 228 to 230 °C
17 | CC(=NOCc1ccccc1)c1cccc(S(N)(=O)=O)c1 | 136 to 139 °C
18 | O=C(CCc1cccnc1)NCCCCC1CCN(S(=O)(=O)c2ccc3ccccc3c2)CC1 | 103 to 105 °C
19 | NNc1cnc(-c2ccccc2)cn1 | 98 to 99 °C
20 | CCOC(=O)c1c(CN2CCCCC2)nc2cc3c(cc2c1-c1ccc(OC)c(OC)c1)OCCO3 | 158 to 160 °C
21 | CC(=O)OC1CC2=CCC3C4CCC(C(C)CBr)C4(C)CCC3C2(C)C(OC(C)=O)C1 (centres undefined) | 75 to 76 °C
22 | CC(C)C(C)(C(N)=O)N1C(=O)c2cccnc2C1=O (centres undefined) | 176 to 178 °C
23 | N#CC(C#N)=C1c2cc(N)c(Cl)cc2-c2cc(Cl)c(N)cc21 | 336 to 338 °C

Row | SMILES | melting point
24 | C1=C(c2nc(COc3ccc(CCCn4ccnc4)cc3)co2)CCc2ccccc21 | 99 to 100 °C
25 | COc1cc2c(cc1OC)C(N(CC(=O)O)C(=O)C(CSC(C)=O)CSC(C)=O)CC2 (centres undefined) | 140 to 143 °C
26 | O=C(O)C1=Cc2cc(Cl)cnc2NC1C(F)(F)F (centres undefined) | 287 to 288 °C
27 | O=C(CNc1ccccc1)Nc1ccc(Cl)cc1C(=O)O | 210 to 212 °C
28 | CCOC(=O)C1=C(NC(C)=O)Oc2cc(O)ccc2C1c1cccnc1 (centres undefined) | 216 to 218 °C
29 | COCCCSc1c2c(=O)n(C)c(=O)n(CC(C)C)c2cn1Cc1cccc2ccccc12 | 92 to 94 °C
30 | CC1=C(C(N)=O)C(c2ccccc2)(N2CCN(c3ccc(F)cc3C)CC2)NO1 (centres undefined) | 139 to 141 °C
31 | CCCCn1c(=O)c(NC(=O)Nc2c(C(C)C)cc(N(C)Cc3cccnc3)cc2C(C)C)c(-c2cccc(OC)c2)c2cccnc21 | 155 to 157 °C
32 | CC(=O)Nc1ccc2c(c1)C(=O)CC2 | 176 to 180 °C
33 | Cc1cccc(N2CCN(CCCON3C(=O)c4ccccc4C3=O)CC2)c1 | 127 to 128 °C
34 | Cc1ccc(Sc2c(-c3ccc(S(C)(=O)=O)cc3)cnn(-c3cccc(Cl)c3)c2=O)cc1 | 178 °C
35 | Cn1c(OCC(F)(F)F)nn(C(=O)Oc2ccccc2)c1=O | 105 °C
36 | CCOP(=O)(CCOc1ccc(C(=O)O)cc1)OCC | 86 to 88 °C
37 | CC(C)(C)n1ncc(C(=O)O)c1Cl | 132 to 134 °C
38 | CCCOc1cccc2c1OCN(CCc1ccccc1)C2 | 84 °C
39 | CCCC(=O)Nc1nc2ccccc2n2c(CC)nnc12 | 185 to 187 °C
40 | N#Cc1ccc2nc(Cl)c3ccccc3c(=O)c2c1 | 217 to 220 °C
41 | CN1c2ccccc2N(C(=O)c2ccc(-c3ccccc3)cc2)Cc2cccnc21 | 220 to 223 °C
42 | Cc1ccc(C)c(NC(=O)CCc2ccc(O)c(N)c2)c1 | 162 to 163 °C
43 | CC(C)Oc1ccc(CCC(=O)NS(=O)(=O)c2ccccc2)c(Oc2ncc(C(F)(F)F)cc2Cl)c1 | 129 to 130 °C
44 | Cc1cc2c(cc1C)N=C(c1ccc(-n3c(C)nc4cnccc43)cc1)CC(N)=N2 | 299 to 302 °C
45 | Cn1nnnc1-c1cnc2cc(Cl)c(F)cc2c1O | 326 to 330 °C
46 | Cc1nc2ccccc2c(=O)n1CCN1CCC(c2noc3cc(F)ccc23)CC1 | 164 to 165 °C

Row | SMILES | melting point
47 | O=C(Cc1ccc(F)cc1)NC1CCN(Cc2ccc(Cl)c(Cl)c2)CC1 | 144 to 147 °C
48 | CCCCNC(=O)Oc1cccc(NC(=O)CC(C)(OCC)OCC)c1 | 130 °C
49 | CC(=O)Nc1nc(O)c2cc(C=C(C)c3ccc(C(=O)O)cc3)cnc2n1 | > 250 °C
50 | COc1cccc(Sc2c(C)n(CC(=O)O)c3ccc(NS(C)(=O)=O)cc23)c1 | 292 °C
51 | O=C(Nc1ccc(C(=O)N2CCCCc3cc(Cl)ccc32)cn1)c1ccccc1OCCCCO | 157 to 158 °C
52 | CN(C)C(=O)N[C@H]1CC[C@H](CCN2CCN(c3cccc4c3CCC4)CC2)CC1 | 150 to 152 °C
53 | CCn1cc(C2(c3cccc(-c4cncc(F)c4)c3)N=C(N)N(C)C2=O)cn1 (centres undefined) | 216 to 220 °C
54 | Nc1nc(-c2cc(F)cc(F)c2)nc2nc(-c3ccco3)nn12 | 356 to 360 °C
55 | O=C(O)C(CCCc1ccccc1)NS(=O)(=O)c1ccc(N2CCC(c3ccccc3)CC2)cc1 (centres undefined) | 59 to 62 °C
56 | O=C1CCN(c2ccc(C=C3SC(=O)NC3=O)cc2F)CC1 | > 200 °C
57 | CC(C)(C)C(=O)Nc1nc(OCCCCOCc2ccccc2)ccc1C=O | 82 to 84 °C
58 | O=[N+]([O-])c1ccc(O)c(C=NCCC(F)=C(F)F)c1 | 96 to 98 °C
59 | O=C(CBr)c1cc(-c2cccc(C(F)(F)F)c2)nc(C(F)(F)F)c1 | 87 to 89 °C
60 | Cc1cc(N=C2NCCN2)cc(NS(C)(=O)=O)c1C | 254 to 255 °C
61 | O=C1CCCN1CCCCCCN1CCCC1=O | 101 to 103 °C
62 | COC(=O)c1ccc(Cc2ccc(O)cc2)cn1 | 184 to 186 °C
63 | CCCN(C)C(=O)Nc1c(C(=O)c2ccccc2)[nH]c2cc(Cl)ccc12 | 168 to 171 °C
64 | CN1C(=O)C(c2ccc(OC(F)F)cc2)(c2cccc(C#CCCO)c2)N=C1N (centres undefined) | 90 to 93 °C
65 | CC(C)(C)c1cccc(CNC(c2ccccc2)C(NCc2cccc(C(C)(C)C)c2O)c2ccccc2)c1O (centres undefined) | 143 to 144 °C
66 | COc1cc2c(cc1Nc1ncc(Cl)c(Nc3ccc(N4CCOCC4)cc3OC)n1)CCN(CC(=O)OC(C)C)CC2 | 70 to 80 °C
67 | CN(c1cccc2cc(C3=NCC(CC(=O)N4CCS(=O)(=O)CC4)S3)[nH]c12)S(=O)(=O)c1cccs1 (centres undefined) | 158 °C
68 | CCN(CC)c1ccc(C(=O)Cn2ncc(-c3ccc(S(C)(=O)=O)cc3)c(-c3ccc(F)cc3)c2=O)cc1 | 105 to 108 °C
69 | CCCC(C(=O)N(C)C)n1cc(C)c(-c2ccco2)n1 (centres undefined) | 107 to 109 °C
